The record followed here is US20230175022A1 (priority 2020, published 2023).

System in one series: not listed separately
The series is described as follows: Partitioning of olivetolic acid between organic overlay and aqueous culture phase (shake flask, HPLC). It counts as physicochemical. The settings on record: IPM overlay; YP+2% galactose culture, not acidified. The protocol:
Precultures of LSC3-2 and LSC3-18 were inoculated from YPD streak plates and grown in 30 mL of YP+2% (w/v) glucose in baffled 250 mL shake flasks for approximately 18 hours overnight at 30° C. with 200 rpm shaking. Baffled 250 mL shake flasks containing 30 mL of YP+2% (w/v) galactose, 5 mL of IPM or diethyl sebacate, and 0.04% (w/v) hexanoic acid, were inoculated with 1 mL of preculture and grown for at 30° C. with 200 rpm shaking. After 24 and 48 hours, samples of cell culture broth plus overlay were sampled into microcentrifuge tubes and stored at −20° C. at least overnight. Sample tubes were thawed and aqueous sample and overlay sample were pipetted into plates for HPLC analysis. Overlay samples were diluted 1:1 v/v with methanol in the HPLC plate prior to analysis.
On to `CCCCCc1cc(O)cc(O)c1C(=O)O` [OA, olivetolic acid], for which the “partitioning between overlay and aqueous phase” value is “partitioned between the IPM and aqueous phases”.

Still in this series, the particulars now being: diethyl sebacate overlay; YP+2% galactose culture, not acidified.
Regarding `CCCCCc1cc(O)cc(O)c1C(=O)O` [OA, olivetolic acid], the “partitioning between overlay and aqueous phase” value is recorded as “entirely partitioned into diethyl sebacate”.

System in a further series: not listed separately
As to the kind of experiment: Partitioning of divarinic acid and divarin into organic overlays (96 well deepwell plate, HPLC). It counts as physicochemical. The settings on record: Delft medium+CSM+2% glucose, 48 hours. The protocol: Several monoester and one diester overlay candidate were compared to IPM for production of divarinic acid and divarin. LSC3-13 precultures were inoculated from YPD streak plates and grown in 300 μL Delft medium+0.79 g/L complete supplement mixture (CSM) (ForMedium, Norfolk, UK)+2% (w/v) glucose in round-bottom square well 96 well deepwell plates for approximately 18 hours overnight at 30° C. with 950 rpm shaking in an Infors plate shaker. 96 well deepwell plate wells containing 300 μL of Delft medium+CSM+2% (w/v) glucose, 60 μL of different overlay solvents, and 0.08% (w/v) butyric acid, were inoculated with 10 μL of preculture and grown for 30° C. with 950 rpm shaking. After 48 hours, the aqueous layer and overlay were sampled on a Bravo automated liquid handling platform (Agilent) and samples from the aqueous and organic overlay phases were subjected to HPLC analysis to measure divarinic acid and divarin production.
For `CCCc1cc(O)cc(O)c1C(=O)O` [divarinic acid, 2,4-dihydroxy-6-propylbenzoic acid], the “partitioning into monoester overlays compared with olivetolic acid and olivetol” value is recorded as “partition less effectively”.

As to `CCCc1cc(O)cc(O)c1` [divarin, 1,3-dihydroxy-5-propylbenzene], the “partitioning into monoester overlays compared with olivetolic acid and olivetol” value is listed as “partition less effectively”.

In another series the test system is S. cerevisiae. As to the kind of experiment: Growth of S. cerevisiae strains in overlay/underlay candidates (OD600). It counts as cell-based, Saccharomyces cerevisiae. The settings on record: 20% (v/v) overlay/underlay; YP+2% (w/v) galactose. The procedure: To test non-toxic organic overlays/underlays, different non-production background and production strains of S. cerevisiae (Table 1) were inoculated from colonies on YPD agar plates and grown for approximately 24 hours in 96 well deepwell plates containing 300 μL YP+2% (w/v) glucose at 30° C. with 950 rpm shaking (3 mm throw) and maintained at 85% humidity. These cultures were then used to inoculate 96 well deepwell plates containing 300 μL YP+2% (w/v) galactose (YP gal) or glucose (YP glu), with or without addition of 0.04% (w/v) hexanoic acid (HA) plus 20% (v/v) (60 μL) of different overlays/underlays or no organic phase, under the same conditions described for precultures. At three different times (specified in plots), biological triplicate cultures were sampled and optical density at 600 nm (0D600) was measured as a proxy for biomass growth on a SpectraMax plate reader, with dilution in water to allow measurements to be within the linear range of instrumental readings. Averaged OD600s across at least three biological replicates of each strain/overlay condition at each sampling time. Multiple sets of measurements were performed on large groups of overlay and underlay candidates in different batches.
Take `CCOC(=O)C(CC)(CC)C(=O)OCC` [diethyl diethylmalonate]: the “toxicity to growth (OD600), with galactose” value is recorded as “substantial lag”. For the compound `CC(C)(C)OC(=O)CC(=O)OC(C)(C)C` [di-cert-butyl malonate, Di-tert-butyl malonate], the “toxicity to growth (OD600), with galactose” value is “appearing toxic or to induce substantial lag”.

The same series, now with this note: 20% (v/v) overlay/underlay; YP+2% (w/v) galactose or glucose; 96 well deepwell plates; production and non-production strains.
As for `CCCCCCCCCCO` [Decanol], the “toxicity to growth (OD600 as proxy for biomass growth)” value is on record as “toxic to growth”. The same measure, in the same setting: then “2,2,4-trimethyl-1,3-pentanediol monoisobutyrate [Texanol]”, with “inhibitory to growth”; and `CCCCCCCC/C=C\CCCCCCCCO` [oleyl alcohol], with “supports robust growth”. On to `CCCCCCCC(=O)OCC(COC(=O)CCCCCCC)OC(=O)CCCCCCC` [Tricaprylin], for which the “toxicity to growth (OD600 as proxy for biomass growth)” value is recorded as “fairly toxic”. Still for that read-out and setting: for `CCCCCCCCCCCCCC` [tetradecane] the value was “Lack of toxicity”; for `CCCCOC(=O)CCCCCCCCC(=O)OCCCC` [Dibutyl sebacate], “completely non-inhibitory to growth”. `CCOC(=O)CCCCCCCCC(=O)OCC` [diethyl sebacate]: the “toxicity to growth (OD600 as proxy for biomass growth)” value is listed as “modest growth by most strains”. For `CCCCCCCCCCCC` [dodecane], the “toxicity to growth (OD600 as proxy for biomass growth)” value is listed as “Lack of toxicity”.

Turning to `CCCCCCCCCCCCCC(=O)OC` [methyl myristate], the “toxicity to growth (OD600 as proxy for biomass growth)” value was “non-toxic”. Same read-out and setting: for `CC(C)OC(=O)CCCCC(=O)OC(C)C` [diisopropyl adipate] the value was “Some growth was observed”; for `CCCCCCCCCCCCCCCC` [hexadecane], “Lack of toxicity”. Same read-out and setting: for `CCCCCCCCCCCC(=O)OCC` [ethyl laurate] the value was “non-toxic”.

As for `CCCCCCCCCCCCCC(=O)OC(C)C` [IPM, isopropyl myristate], the “toxicity to growth (OD600 as proxy for biomass growth)” value is recorded as “non-toxic”. For the compound `CCCCCCCCCC(=O)OCC` [ethyl decanoate], the “toxicity to growth (OD600 as proxy for biomass growth)” value is reported as “increasingly non-toxic”. Regarding `CCCCOC(=O)CCCCC(=O)OCCCC` [dibutyl adipate], the “toxicity to growth (OD600 as proxy for biomass growth)” value is recorded as “no apparent toxicity”. Still for that read-out and setting: for `CCCCCCOC(=O)CCCCC` [hexyl hexanoate] the value was “moderately non-toxic”; for `CCCCCCCC(=O)OC(C)C` [Isopropyl octanoate], “moderately inhibitory but allowed for some growth”. The same measure, in the same setting: then `CCCCCCCCCCCC(=O)OCCCC` [butyl laurate], with “non-toxic”; and `CCCCCCCCOC(C)=O` [octyl acetate], with “toxic”; and `CCCCCCCCCCCCCC(=O)OCC` [ethyl myristate], with “non-toxic”.

Consider `CCCCCCCCCC(=O)OC` [methyl decanoate], for which the “toxicity to growth (OD600 as proxy for biomass growth)” value was “moderately inhibitory to growth but still allowed for growth”.

The series is the same for the next values; noted with them: 20% (v/v) overlay/underlay; YP+2% (w/v) glucose.
For `CCCCCCCC(=O)OCC(COC(=O)CCCCCCC)OC(=O)CCCCCCC` [Tricaprylin], the “toxicity to growth (OD600), with glucose” value was “allowed some growth of all strains”. Turning to `CCOC(=O)C(CC)(CC)C(=O)OCC` [diethyl diethylmalonate], the “toxicity to growth (OD600), with glucose” value is on record as “modest growth by most strains”. On the same count and under the same terms, then `CC(C)(C)OC(=O)CC(=O)OC(C)(C)C` [di-cert-butyl malonate, Di-tert-butyl malonate], with “supported growth of all strains”.

A further series concerns S. cerevisiae. The series is described as above. The settings on record: 1-10% (v/v), particularly 1-2.5% (v/v), in IPM and isopar M. It counts as cell-based, Saccharomyces cerevisiae.
In the case of `CC(C)(C)OC(=O)CC(=O)OC(C)(C)C` [di-cert-butyl malonate, Di-tert-butyl malonate], the “toxicity to growth of mixture in IPM or isopar M” value was “much lower toxicity”.
